The values below come from PMC4464424, “Peptide–polymer ligands for a tandem WW-domain, an adaptive multivalent protein–protein interaction: lessons on the thermodynamic fitness of flexible ligands” (Beilstein Journal of Organic Chemistry, 2015).

In assay [1] the target is T1, tandem WW domain of FBP21 (Homo sapiens, UniProt O75554).
T1 construct: multivalent peptide-polymer conjugates and the tandem WW domain of protein FBP21 determined at 8 °C by ITC measurements; made in house; host or cells: E. coli BL21 (DE3)
T1 sequence (O75554 122-196 limits assumed): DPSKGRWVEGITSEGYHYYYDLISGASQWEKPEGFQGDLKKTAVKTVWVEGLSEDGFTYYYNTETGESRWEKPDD
Briefly: Isothermal titration calorimetry (ITC) of peptide–polymer conjugates with tandem WW domain. The class given is binding. The conditions noted are these: for Binding stoichiometry (peptide ligands per protein receptor): ratio of peptide ligand molecules relative to each protein binding site. Here is the method:
Binding studies with peptide–polymer conjugates were conducted employing isothermal titration calorimetry (ITC). This method enables the determination of the binding affinity of the multivalent ligands and elucidates the composition of the free energy of binding from the enthalpic and entropic contributions. In addition, the method can be used to determine the stoichiometry of the formed protein–ligand complex indicating the ratio of peptide ligand molecules relative to each protein binding site thereby giving valuable insights into the multivalency of binding and/or the degree of crosslinking. Thus, the method enables the identification of polymer–protein aggregates containing several polymers and proteins in a complex. No precipitation of the multicomponent aggregates that interfered with ITC measurements was observed during the experiments.
ITC-analysis (Figure 2) of the binding of multivalent peptide–polymer conjugates yielded KD values either corresponding to the polymer concentration or relative to the overall peptide concentration (N*KD). […] Binding in all cases was driven mainly by enthalpy, which clearly outweighed the observed entropy loss. In the seven peptide–polymer conjugates investigated, increased loading density of ligands led consistently to increased affinity of the multivalent ligand (Table 1). The most significant difference between dextran and the two other polymer carriers was the stoichiometry of the formed peptide-polymer–protein complex. […] Corresponding to the observed colloidal suspension/dispersion the stoichiometry of peptide ligands per protein receptor resulting from the ITC experiments was >2 for each of either pHPMA or hPG-based material, most pronounced for pHPMA with n = 2.6–2.8.
Figure 2 Representative ITC-measurements conducted at 8 °C with the peptide–polymer conjugates A) pHPMA-1 and B) Dex-2 showing an increase in affinity for the interaction of Dex-2 with the FBP21 tandem WW domains. […]
Isothermal Titration Calorimetry (ITC) Experiments
All samples for ITC were prepared with the phosphate buffer used for protein purification. A 10 mM stock solution of the peptide polymer conjugate in PBS was prepared and adjusted to pH 7.4 with a 50 mM NaOH solution in PBS. Aliquots of the stock solution were diluted to the final concentration of 1.5-2 mM with PBS.
Proteins were expressed as His- or GST-tagged fusion constructs in E.coli BL21 (DE3), purified by the corresponding affinity matrices, thrombin cleaved and applied to a gel filtration column (superdex-75) at 50 mM phosphate, 150 mM NaCl, 1 mM EDTA, pH 6.5 or 1xPBS, 1 mM EDTA, pH 7.4. Proteins were concentrated by Cen-trifugal Filter Units (regenerated cellulose, 3 kDa cut-off, Millipore) if necessary.
2 µl aliquots of peptide-polymer conjugates were titrated into a 50-70 µM protein solution inside the calorimeter cell (200 µl) while the reaction mixture was continuously stirred at 1000 rpm. Ligand concentration in the titration syringe was typically in 20-time excess corresponding to protein. Time intervals between injections were adjusted to 240 s which was sufficient for the heat signal to return to baseline level. In control experiments peptide-polymer conjugates were injected into […]
The heats of dilution were subtracted from the heats determined in the corresponding protein-ligand binding experiments. Automated baseline adjustment and peak integration were accomplished with the public-domain software NITPIC [5]. Estimation of best-fit parameter values by nonlinear least-squares fitting and calculation of 95% confidence intervals were performed with the public-domain software SEDPHAT [6].
Polymer-attached peptides were considered as monovalent ligands, and the tandem WW protein as receptor molecule with two similar independent binding sites. Binding was analysed in terms of simple hetero-association model. Corresponded calculation gives the microscopic binding constants that characterise the binding affinity of […]
(In general: In ITC the heat of successive injections is recorded.)

Assay [2] deals with T1, tandem WW domain of FBP21. The conditions noted are these: peptide alone, read-out: dissociation constant (KD); cited from earlier work. An excerpt:
ITC-analysis (Figure 2) of the binding of multivalent peptide–polymer conjugates yielded KD values either corresponding to the polymer concentration or relative to the overall peptide concentration (N*KD).

The target in a further assay is T2, Dex-3 (also: 8 peptides conjugated to 50 kDa dextran).
T2 chain: CGPPPRGPPPR-NH2
The assay can be described thus: ITC.

A further assay has as its target T3, pHPMA-1 (also: 6 peptides conjugated to pHPMA polymer).
T3 chain: CGPPPRGPPPR-NH2
Briefly: ITC.

For another assay, the target named is T4, pHPMA-2 (also: 9 peptides conjugated to pHPMA polymer).
T4 chain: CGPPPRGPPPR-NH2
The assay can be described thus: ITC.

A further assay concerns the target T5, Dex-2 (also: 6 peptides conjugated to 10 kDa dextran).
T5 chain: CGPPPRGPPPR-NH2
Briefly: ITC.

Another assay concerns the target T6, hPG-1 (also: 3 peptides conjugated to hyperbranched polyglycerol).
T6 chain: CGPPPRGPPPR-NH2
The assay can be described thus: ITC.

In the next assay the target is T7, Dex-1 (also: 3 peptides conjugated to 10 kDa dextran).
T7 chain: CGPPPRGPPPR-NH2
The assay can be described thus: ITC.

In the next assay the target is T8, P1.
T8 chain: GPPPRGPPPR-NH2
The assay can be described thus: ITC.

Where [3] appears, read: ITC at 8 °C, PBS pH 7.4, 2 µl aliquots of conjugate titrated into 50-70 µM protein, KD related to polymer concentration, 1:1 binding model, read-out: KD (binding affinities of peptide–polymer conjugates).

Like-named read-outs stand apart in the source and are kept apart here. Ends that are not written are not given here.

As for Ac-GPPPRGPPPR-NH2 [Ac-P1], the Kd is greater than 1000 µM in assay [1] (setting [3]) and greater than 1000 µM in assay [1] (ITC at 8 °C, PBS pH 7.4, related to overall peptide concentration, N = number of ligands per polymer, read-out: Rel. KD = N*KD (binding affinity related to overall peptide concentration)).

With CGPPPRGPPPR [Dex-1], the Kd in assay [1] (setting [3]) was 7 ± 1.2 µM. The “Binding stoichiometry (peptide ligands per protein receptor)” value in assay [1] (ITC at 8 °C) amounted to 1.8.

As to CGPPPRGPPPR [Dex-2], the “Binding stoichiometry (peptide ligands per protein receptor)” value in [1] (ITC at 8 °C) is on record as 1.4.

As for CGPPPRGPPPR [Dex-3], in [1] (ITC at 8 °C), the “Binding stoichiometry (peptide ligands per protein receptor)” value is 1.3.

On to “CGPPPRGPPPR [hPG-1, hyperbranched polyglycerol modified with maleimido groups, coupled with 3 copies of P2]”, for which the “Binding stoichiometry (peptide ligands per protein receptor)” value in assay [1] (ITC at 8 °C) turned out to be 2.3.

Take “CGPPPRGPPPR [hPG-2, hyperbranched polyglycerol modified with maleimido groups, coupled with 4 copies of P2]”: the Kd in [1] (setting [3]) was found to be 5 ± 1.3 µM. Besides, in assay [1] (ITC at 8 °C), the “Binding stoichiometry (peptide ligands per protein receptor)” value amounted to 2.4.

Take “CGPPPRGPPPR [pHPMA-1, poly(N-(2-hydroxypropyl)methacrylamide) NCL-polymer conjugated with 6 copies of P2 by native chemical ligation]”: in assay [1] (setting [3]), the Kd is 5 ± 0.8 µM. In addition, the “Binding stoichiometry (peptide ligands per protein receptor)” value in [1] (ITC at 8 °C) is 2.6.

Consider “CGPPPRGPPPR [pHPMA-2, poly(N-(2-hydroxypropyl)methacrylamide) NCL-polymer conjugated with 9 copies of P2 by native chemical ligation]”, for which the “Binding stoichiometry (peptide ligands per protein receptor)” value in assay [1] (ITC at 8 °C) is listed as 2.8.

As to GPPPRGPPPR-NH2 [P1], the Kd in assay [2] is greater than 1000 µM; in [1] (monovalent ligand, tandem WW-domain of FBP21, as stated in the abstract, read-out: KD), greater than 1000 µM.

B1: FBP21 tandem WW (protein)
chain: DPSKGRWVEGITSEGYHYYYDLISGASQWEKPEGFQGDLKKTAVKTVWVEGLSEDGFTYYYNTETGESRWEKPDD
Consider B1, for which the Kd in the assay with Dex-3 was 1.6 µM; in the assay with pHPMA-1 it was 5 µM; with pHPMA-2 it was 3.3 µM; with Dex-2, 1.2 µM; with hPG-1, 6.3 µM; with Dex-1, 7 µM. Also, the Kd with P1 was greater than 1000 µM.
